For data set [1], the system named is gram positive bacteria. In words: In vitro anti-bacterial activity assay (broth dilution MIC), gram positive bacteria. In kind it is cell-based, S. aureus. Conditions: for MIC: 18 h. In short, it runs like this: (§1)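 Broth dilution MIC following CLSI M7-A2: compounds serially diluted, log-phase test strains added to final ~5×10^5 CFU/ml, incubated ~18 hours at 35° C in ambient air. Plates read on microplate reader or visually; MIC is lowest concentration inhibiting growth.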

Data set [2] deals with gram negative bacteria. The experiment in a line: In vitro anti-bacterial activity assay (broth dilution MIC), gram negative bacteria. In kind it is cell-based, E. coli. In short, it runs like this:
as §1
In general terms: Broth dilution looks for growth in wells or tubes with falling amounts of substance.

In data set [3] the test system is CHO-K1 cells. In words: in vitro. In kind it is cell-based. The conditions noted are these: Chinese hamster, 24 h.
Data set [4] concerns 3T3 fibroblast cells. The experiment in a line: In vitro phototoxicity assay (neutral red; UV light-treated vs dark control plates). Conditions: for Photo Toxicity UV Tox50: UV light 50 minutes; for Photo Toxicity Dark Tox50: dark control plate. In kind it is cell-based. In short, it runs like this: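 Neutral red viability readout (A535 after EtOH/acetic acid extraction) compares paired plates: one exposed 50 min to UV at 1.6–1.8 mW/cm^2, one held in darkness, both dosed with compound in HBSS and recovered overnight. 3T3 fibroblast cells used; phototoxicity taken as the difference.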

The nature of data set [5]: Mammalian cytotoxicity assay (resazurin), COS-1 cells. The conditions noted are these: African green monkey, read-out: Cytotox. COS-1. In kind it is cell-based. In short, it runs like this:
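Cells seeded overnight at 37° C., 5% CO2, then exposed to serial compound dilutions for 24 hours. Medium replaced with resazurin (0.042 mg/ml in PBS with Ca and Mg) for 2 hours plus 30 minutes dark at room temperature; fluorescence read at ex 535/em 590 nm, IC50 taken as 50% growth inhibition.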
(Resazurin is reduced to fluorescent resorufin, in cell work by metabolically active cells.)

Data set [6] can be described thus: in vitro. In kind it is cell-based. Conditions: Chinese hamster, Cytotox. CHO-K1.
The mark [7] stands for this setting: Staphylococcus aureus, S. aureus MRSA5, read-out: Median MIC's G+ S. aureus MRSA5.
Setting [8] is: Staphylococcus aureus, S. aureus RN450, read-out: Median MIC's G+ S. aureus RN450.
The mark [9] stands for this setting: Streptococcus pneumoniae, S. pneumoniae 157E-Strep, read-out: Median MIC's G+ S. pneumoniae 157E-Strep.
[10] abbreviates: Escherichia coli, 18 h, E. coli D1 209, read-out: Median MIC's G− E. coli D1 209.
The mark [11] stands for this setting: Escherichia coli, 18 h, E. coli MG 1655, read-out: Median MIC's G− E. coli MG 1655.
Setting [12] is: Escherichia coli, ATCC25922, 18 h, E. coli ATCC 25922, read-out: Median MIC's G− E. coli ATCC 25922.
The mark [13] stands for this setting: Pseudomonas aeruginosa, 18 h, P. aeruginosa K201 PAO6609, read-out: Median MIC's G− P. aeruginosa K201 PAO6609.

Values after ≈ are worked out from the molar mass of the structure shown. Read-outs that look alike come from different tables or passages of the source. Bounds are passed on as bounds.

Data on 5 molecules can be found in patent publication US20100022483A1, “Substituted Tetracycline Compounds” (Paratek Pharmaceuticals, Inc., priority 2008, published 2010).

`CN(C)CCCNC(=O)c1cccc(-c2ccc(O)c3c2C[C@H]2C[C@H]4[C@H](N(C)C)C(O)=C(C(N)=O)C(=O)[C@@]4(O)C(O)=C2C3=O)c1` [Q]: the “Median MIC's G+ S. aureus MRSA5” value in data set [1] (S. aureus MRSA5) amounted to 64 mg/L. Also, the “Median MIC's G+ S. aureus RN450” value in data set [1] (S. aureus RN450) came out at 2 mg/L. In data set [1] (S. pneumoniae 157E-Strep), the “Median MIC's G+ S. pneumoniae 157E-Strep” value turned out to be 1 mg/L. Further, the “Median MIC's G− E. coli ATCC 25922” value in data set [2] (E. coli ATCC 25922) amounted to 64 mg/L. The “Median MIC's G− E. coli D1 209” value in data set [2] (E. coli D1 209) was determined as 64 mg/L. The “Median MIC's G− E. coli MG 1655” value in data set [2] (E. coli MG 1655) was determined as 64 mg/L. In addition, the “Median MIC's G− P. aeruginosa K201 PAO6609” value in data set [2] (P. aeruginosa K201 PAO6609) was 64 mg/L. The molecule further registered an IC50 in data set [3] greater than 137 µM. Moreover, in data set [4], the “Photo Toxicity UV Tox50” value is greater than 137.36 µM and the “Photo Toxicity Dark Tox50” value was greater than 137.36 µM.

For the molecule `CN(C)CCCNC(=O)c1cccc(-c2ccc(O)c3c2C[C@H]2C[C@H]4[C@H](N(C)C)C(O)=C(C(N)=O)C(=O)[C@@]4(O)C(O)=C2C3=O)c1` [J], the MIC (usually the lowest concentration that inhibits growth of the organism) in data set [1] (setting [7]) came out at 64 mg/L (≈ 103 µM); in data set [1] (setting [8]), 1 mg/L (≈ 1.62 µM); in data set [1] (setting [9]) it was 1 mg/L (≈ 1.62 µM); in data set [2] (setting [10]), 64 mg/L (≈ 103 µM); in data set [2] (setting [11]), 32 mg/L (≈ 51.7 µM); in data set [2] (setting [12]), 32 mg/L (≈ 51.7 µM). Besides, the MIC in data set [2] (setting [13]) stood at 64 mg/L (≈ 103 µM). The molecule also yielded an IC50 in data set [3] greater than 40.3 µM. Besides, in data set [4], the “Photo Toxicity UV Tox50” value was greater than 130.13 µM. Besides, the “Photo Toxicity Dark Tox50” value in data set [4] is greater than 130.13 µM.

Regarding `CC(=O)N1CCN(CC(=O)c2ccc(O)c3c2C[C@H]2C[C@H]4[C@H](N(C)C)C(O)=C(C(N)=O)C(=O)[C@@]4(O)C(O)=C2C3=O)CC1` [BS], the MIC in data set [1] (setting [7]) turned out to be 8 mg/L (≈ 13.7 µM); in data set [1] (setting [8]) it was 1 mg/L (≈ 1.72 µM); in data set [1] (setting [9]), 1 mg/L (≈ 1.72 µM); in data set [2] (setting [10]), 64 mg/L (≈ 110 µM); in data set [2] (setting [11]), 32 mg/L (≈ 54.9 µM); in data set [2] (setting [12]), 64 mg/L (≈ 110 µM). For the same molecule, the MIC in data set [2] (setting [13]) amounted to 64 mg/L (≈ 110 µM). Also, the IC50 at 24 h in data set [5] and in data set [6] was greater than 145 µM in each case. Besides, the “Photo Toxicity UV Tox50” value in data set [4] was greater than 144.92 µM. Besides, in data set [4], the “Photo Toxicity Dark Tox50” value is greater than 144.92 µM.

In the case of `CN(C)[C@@H]1C(O)=C(C(N)=O)C(=O)[C@@]2(O)C(O)=C3C(=O)c4c(O)ccc(-c5cccc(C(=O)NCCN6CCOCC6)c5)c4CC3CC12` (some centres unmarked) [DC], the MIC stood at 4 mg/L (≈ 6.19 µM) in data set [1] (setting [7]); 0.125 mg/L (≈ 0.193 µM) in data set [1] (setting [8]); 0.125 mg/L (≈ 0.193 µM) in data set [1] (setting [9]); 64 mg/L (≈ 99 µM) in data set [2] (setting [10]); 8 mg/L (≈ 12.4 µM) in data set [2] (setting [11]); 16 mg/L (≈ 24.7 µM) in data set [2] (setting [12]). Moreover, in data set [2] (setting [13]), the MIC worked out at 64 mg/L (≈ 99 µM). In addition, the IC50 at 24 h in data set [5] and in data set [6] was greater than 13.6 µM each time. Also, the “Photo Toxicity UV Tox50” value in data set [4] is greater than 136.18 µM. In addition, the “Photo Toxicity Dark Tox50” value in data set [4] was greater than 136.18 µM.

For `CN(C)[C@H]1C(O)=C(C(N)=O)C(=O)[C@@]2(O)C(O)=C3C(=O)c4c(O)ccc(-c5cccc(CCCN6CCCCC6)c5)c4C[C@H]3C[C@@H]12` [BN], the MIC in data set [1] (setting [7]) is 32 mg/L (≈ 52 µM); in data set [1] (setting [8]), 4 mg/L (≈ 6.5 µM); in data set [1] (setting [9]), 0.25 mg/L (≈ 0.406 µM); in data set [2] (setting [10]) it was 32 mg/L (≈ 52 µM); in data set [2] (setting [11]), 32 mg/L (≈ 52 µM); in data set [2] (setting [12]), 16 mg/L (≈ 26 µM). Besides, in data set [2] (setting [13]), the MIC is 64 mg/L (≈ 104 µM). The IC50 at 24 h in data set [5] and in data set [6] was greater than 63 µM in each case. For the same molecule, the “Photo Toxicity UV Tox50” value in data set [4] came to 33.41 µM. Further, the “Photo Toxicity Dark Tox50” value in data set [4] was greater than 200 µM.
